Test [1] has as its system bovine aortic endothelial cells. In words: Organization of endothelial cells into capillary-like networks in type I collagen gel. The class given is cell-based. Particulars: 0.1 μg/ml Halofuginone; bFGF 1 ng/ml and heparin 1 μg/ml. The protocol: Type I collagen was prepared from the tail tendons of adult Sprague Dawley rats. Briefly, the collagen fibers were solubilized by a slow stirring for 48 h at 4° C. in a sterile, 1/1000 (w/v) acetic acid solution (300 ml for 1 g of collagen). The resulting solution was filtered through a sterile triple gauze and centrifuged at 16,000 g for 1 h at 4° C. The supernatant was then extensively dialyzed against 1/10. DMEM and stored at 4° C. The collagen matrix gel was obtained by simultaneously raising the pH and ionic strength of the collagen solution. For this purpose, 7 vol of collagen solution were quickly mixed with 1 vol of 10X Minimum Essential Medium and 2 vol sodium bicarbonate (0.15 M) [R. F. Nicosa and A. Ottinetti, Lab. Invest, Vol. 63, pp. 115-122 (1990)]. Bovine aortic endothelial cells were seeded into 16 mm wells of a 24-well plate and allowed to grow for 24 h, to obtain a subconfluent monolayer. The culture medium was then removed and 0.4 ml of the cold collagen mixture described above were poured on top of the cell monolayer and allowed to polymerize for 10 min at 37° C. […] The reorganization of the endothelial cell monolayer was monitored and photographed with a Zeiss inverted phase contrast photomicroscope [K. Monesano, et al., J. Cell Biol., Vol. 97, pp. 1648-1652 (1983)].

For test [2], the system named is T50 bladder carcinoma. Put plainly: Inhibition of in vivo growth of T50 bladder carcinoma in C3H mice. Particulars: for tumor volume (group mean): Halofuginone containing diet 5 mg/kg; for T50 Tumor Size: individual mice, diet containing 5 mg/kg Halofuginone, day 17. The protocol: C3H mice were divided into two groups (6 mice each). The experimental group received a diet containing 5 mg/kg of Halofuginone 3 days prior to the injection of T50 bladder carcinoma cells and during 2 weeks after. […] The right side received 0.4 * 10^5 cells, and the left side received 2 * 10^5 cells. The tumor size was estimated by measurement of tumor length in two directions, using the formula V=LW^2/2, where V is volume, L is length and W is width. At the end of the experiment at day 17, the mice were weighed, the tumors were excised and a sample of the tumor tissue was fixed and processed for histological examination.

Test [3] has as its system rat mesengial cells. Put plainly: Sulfate and glycine incorporation into rat mesengial cell ECM. Format: cell-based. Particulars: for inhibition at 0.05 µg/mL: 50 ng/ml Halofuginone; for inhibition at 0.2 µg/mL: 200 ng/ml Halofuginone. The protocol:
Rat […] grown to confluency, 24 hours after seeding. The cells were then cultured with or without Halofuginone in the presence of either Na2^35SO4 (FIGS. 9A and 9B) or ^14C-glycine (FIGS. 9C and 9D). Eight days after sending, the cell layer was dissolved to expose the underlying ECM, washed and digested with collagenase to determine the effect of Halofuginone on CDP proteins, as shown in FIGS. 9A and 9C. The remaining material was digested with trypsin and subjected to β-scintillation counting to determine the effect of halofuginone on NCDP proteins, as shown in FIGS. 9B and 9D.

Test [4] concerns 3T3 fibroblast cells. Particulars: in vitro; cited from earlier work.
Test [5] deals with collagen type I. Particulars: in vitro; cited from earlier work.
Test [6] relates to corneal neovascularization. Put plainly: Murine corneal angiogenesis model (bFGF pellet). Format: in vivo, mice. The arrangement: VL (maximum vessel length of the neovascularization zone): unit not given here. Particulars: 2 μg/mouse/day i.p. for 5 days. The protocol:
A murine corneal angiogenesis model was used to evaluate the inhibitory effect of Halofuginone in vivo. The angiogenic factor bFGF was applied into a corneal pocket in a pellet made of a slow release polymer, as described below, and Halofuginone (2 μg/mouse/day) was administered i.p. for 5 consecutive days. The pellets were made of the slow-release polymer Hydron (polyhydroxyethylmethacrylate [polyHEMA], Interferon Sciences, N.J.) containing sucralfate alone, or sucralfate and bGFG. A suspension of sterile saline 10 μg recombinant bFGF plus 10 mg of sucralfate was prepared and speed vacuumed for 5 minutes. To this suspension, 10 μl of 12% Hydron in ethanol was added. The suspension was then deposited onto an autoclave sterilized, 15×15 mm piece of nylon mesh (TETKO, 3-300/50, approximate pore size 0.4×0.4 mm) and embedded between the fibers resulting in a grid of 10×10 squares. Both sides of the mesh were then covered with a thin layer of Hydron to hydrophobically stabilize the pellet during implantation. These layers were allowed to dry on a sterile petri dish for 30 minutes. Subsequently, the fibers of the mesh were pulled apart under a microscope, and about 30-40 uniformly sized pellets of 0.4×0.2×0.2 mm, containing approximately 80-100 ng bGFG per pellet, were collected. Such pellets can be stored frozen at −20° C. for several weeks without loss of bioactivity. C57B⅙ mice of about 7-9 weeks of age were anesthetized with methoxyflurane. The eyes were topically anesthetized with 0.5% proparacaine, and the globe was proposed with a jeweler's forceps. A central, intrastromal linear keratotomy of approximately 0.6 mm length was performed with a surgical blade and a lamellar micropocket was dissected towards the temporal limbus. The temporal extent of the packet was within 0.7-1.0 mm of the limbus. A single pellet was then placed on the corneal surface at the base of the pocket with jeweler's forceps, and using one arm of the forceps, the pellet was advanced toward the temporal end of the pocket. Antibiotic ointment (erythromycin) was applied once to the operated eye, not only to prevent infection, but also to decrease irritation of the irregular ocular surface. […] On post-operative day 5, mice were anesthetized with methoxyflurane, the eyes were proptosed, and the maximum vessel length (VL) of the neovascularization zone extending from the base of the limbal vascular plexus toward the pellet was measured with a linear reticule through the slit lamp. The contiguous circumferential zone of neovascularization (CH) was measured as clock hours with a 360 degree reticule. […] The area of neovascularization was calculated according to the following formula: [formula] where A is area, CH is contiguous circumferential zone of neovascularization and VL is maximal vessel length.

[7] abbreviates: individual mice, post-operative day 5.

“And” between values parts separate entries of the source, which are not always exact repeats. Identical values can stand only once. Like-named read-outs stand apart in the source and are kept apart here.

Turning to `O=C(CC1NCCCC1O)Cn1cnc2cc(Br)c(Cl)cc2c1=O` (centres unmarked) [Halofuginone], the “invasion of endothelial cells into collagen gel and organization into capillary-like tubes” value in test [1] is recorded as “completely inhibited”. In test [2] (C3H mice, diet 5 mg/kg Halofuginone), the “reduction of tumor size compared to control mice” value was 70-80%. Further, the “overall weight of mice” value in test [2] (Halofuginone treated C3H mice, lower due to lower tumor burden) came out at 24 ± 3.1 g. The “tumor volume (group mean)” value in test [2] (high tumor cell dose) is on record as 1.0±0.92 cm^3; in test [2] (lower tumor cell dose), 0.29±0.28 cm^3. For the same molecule, the “T50 Tumor Size” value in test [2] (0.4 * 10^5 cells s.c.) was 0.730 cm^3 and 0.510 cm^3 and 0.036 cm^3 and 0.064 cm^3 and 0.150 cm^3; in test [2] (2 * 10^5 cells s.c.), 2.0 cm^3 and 1.1 cm^3 (2×) and 0.7 cm^3 and 0.1 cm^3. Also, the inhibition at 0.05 µg/mL in test [3] (read-out: inhibition of glycine incorporation, CDP proteins) was approximately 80%; in test [3] (read-out: inhibition of glycine incorporation, NCDP proteins) it was approximately 80%. The inhibition at 0.2 µg/mL in test [3] (read-out: inhibition of sulfate incorporation, CDP proteins) was approximately 30%; in test [3] (read-out: inhibition of sulfate incorporation, NCDP proteins) it was approximately 70%. The “proliferation of 3T3 fibroblast cells” value in test [4] is on record as “inhibit the proliferation”. For the same molecule, the “synthesis of collagen type I in bone chondrocytes” value in test [5] is “inhibits the synthesis of collagen type I”. Moreover, the “inhibition of neovascularization area vs control” value in test [6] is “about 29%”. Moreover, the “average area of neovascularization” value in test [6] (n=7, calculated from CH and VL) was 1.90 mm^2. Besides, in test [6] (setting [7]), the “CH (contiguous circumferential zone of neovascularization)” value is 3.5 clock hours and 3 clock hours (3×) and 2.5 clock hours and 4 clock hours and 1 clock hours. In test [6] (setting [7]), the “VL (maximum vessel length of the neovascularization zone)” value is 1 (3×) and 1.1 and 1.2 and 0.9.

The values are drawn from US6420371B1, “Quinazolinone-containing pharmaceutical compositions for prevention of neovascularization and for treating malignancies” (Madasit Medical Research Services & Development Co., Ltd., priority 1997, dated 2002).
